In patent US10035819B2, “PPAR agonists and methods of use thereof” (The Salk Institute for Biological Studies, priority 2014, dated 2018):
pEC50: −log10 of the molar value.

What follows are molecules tested against T1, Human PPARδ LBD (Homo sapiens, UniProt Q03181) (assay: PPARδ activity screen (GAL4-PPARδ LBD luciferase transactivation in CV-1 cells)). Settings: EC50 nM, Table 1; CV-1 cells, GAL4-PPARδ LBD luciferase reporter, compound 24 h.
T1 construct: (PPARδ amino acid 128 to C-terminus); expressed in transfected cells; host or cells: CV-1 cells
T1 sequence (Q03181 128-441 limits assumed): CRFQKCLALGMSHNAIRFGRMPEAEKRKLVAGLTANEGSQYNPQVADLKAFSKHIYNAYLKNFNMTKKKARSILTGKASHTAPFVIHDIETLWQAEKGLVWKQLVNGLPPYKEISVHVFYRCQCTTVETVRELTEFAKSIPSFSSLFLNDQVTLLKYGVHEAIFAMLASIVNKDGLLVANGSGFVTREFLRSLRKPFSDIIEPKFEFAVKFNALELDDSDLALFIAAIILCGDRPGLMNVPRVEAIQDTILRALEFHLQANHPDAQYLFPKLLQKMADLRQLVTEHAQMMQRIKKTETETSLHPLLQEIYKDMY
Assay type: cell-based
Procedure: Cell Culture and Transfection: CV-1 cells were grown in DMEM+10% charcoal stripped FCS. Cells were seeded into 384-well plates the day before transfection to give a confluency of 50-80% at transfection. A total of […] containing 0.64 micrograms pCMX-PPARDelta LBD, 0.1 micrograms pCMXβGal, 0.08 micrograms pGLMH2004 reporter and 0.02 micrograms pCMX empty vector was transfected per well using FuGene transfection reagent according to the manufacturer's instructions (Roche).
Plasmids: Human PPARδ was used to PCR amplify the PPARδ LBD. […] Ensuing fusions were verified by sequencing.
Compounds: All compounds were dissolved in DMSO and diluted 1:1000 upon addition to the cells. Compounds were tested in quadruple in concentrations ranging from 0.001 to 100 μM. […] Each compound was tested in at least two separate experiments.
Luciferase assay: Medium including test compound was aspirated and washed with PBS. 50 μl PBS including 1 mM Mg++ and Ca++ were then added to each well. The luciferase assay was performed using the LucLite kit according to the manufacturer's instructions (Packard Instruments). Light emission was quantified by counting on a Perkin Elmer Envision reader. […] Beta-galactosidase assays were performed in the microwell plates using a kit from Promega and read in a Perkin Elmer Envision reader. The beta-galactosidase data were used to normalize (transfection efficiency, cell growth etc.) the luciferase data.
Statistical Methods: The activity of a compound is calculated as fold induction compared to an untreated sample. […] EC50 values were calculated via non-linear regression using GraphPad PRISM (GraphPad Software, San Diego, Calif.).
`CC(C)N(Cc1ccccc1OCCCCCC(=O)O)C(=O)c1ccc(-c2ccccc2)cc1` [compound 1] gave an EC50 of 42 nM. In the case of `O=C(O)CCCCCOc1ccccc1CN(C(=O)c1ccc(-c2ccccc2)cc1)C1CC1` [compound 8], the EC50 was 115 nM. `O=C(O)CCCCCOc1ccccc1CN(C(=O)c1ccc(-c2cccs2)cc1)C1CC1` [compound 14] was tested, and the EC50 was 1800 nM. Molecule `CCC(C)N(Cc1ccccc1OCCCCCC(=O)O)C(=O)c1ccc(Br)cc1` (stereo not shown) [compound 32] has an EC50 of 611 nM. For `CCC(C)N(Cc1ccccc1OCCCCCC(=O)O)C(=O)c1ccc(-c2ccccc2)cc1` (stereo not shown) [compound 33], the EC50 was 954 nM. Work on `CCC(C)N(Cc1ccccc1OCCCCCC(=O)O)C(=O)c1ccc(-c2cccnc2)cc1` (stereo not shown) [compound 34] yielded an EC50 of 5140 nM. `CCC(C)N(Cc1ccccc1OCCCCCC(=O)O)C(=O)c1ccc(-c2ccncc2)cc1` (stereo not shown) [compound 35] was tested, and the EC50 was 6400 nM. For `CCC(C)N(Cc1ccccc1OCCCCCC(=O)O)C(=O)c1ccc(-c2cn[nH]c2)cc1` (stereo not shown) [compound 36], the EC50 was 15400 nM. In the case of `CCC(C)N(Cc1ccccc1OCCCCCC(=O)O)C(=O)c1ccc(-c2ccoc2)cc1` (stereo not shown) [compound 38], the EC50 was 290 nM. `CCC(C)N(Cc1ccccc1OCCCCCC(=O)O)C(=O)c1ccc(-c2cccs2)cc1` (stereo not shown) [compound 39] gave an EC50 of 2100 nM. `CCC(C)N(Cc1ccccc1OCCCCCC(=O)O)C(=O)c1ccc(-c2ccsc2)cc1` (stereo not shown) [compound 40] was tested, and the EC50 was 179 nM. Molecule `CC(C)N(Cc1ccccc1OCCCCCC(=O)O)C(=O)c1ccc(-c2cccnc2)cc1` [compound 58] has an EC50 of 1240 nM. With `O=C(O)CCCCCOc1ccccc1CN(C(=O)c1ccc(-c2ccccc2)cc1)C1CCCC1` [compound 65] the EC50 was 405 nM. Work on `Cc1ccccc1-c1ccc(C(=O)N(Cc2ccccc2OCCCCCC(=O)O)C2CC2)cc1` [compound 75] yielded an EC50 of 1190 nM. Work on `Cc1cccc(-c2ccc(C(=O)N(Cc3ccccc3OCCCCCC(=O)O)C3CC3)cc2)c1` [compound 76] yielded an EC50 of 318 nM. Molecule `Cc1ccc(-c2ccc(C(=O)N(Cc3ccccc3OCCCCCC(=O)O)C3CC3)cc2)cc1` [compound 77] has an EC50 of 372 nM. For `COc1ccccc1-c1ccc(C(=O)N(Cc2ccccc2OCCCCCC(=O)O)C2CC2)cc1` [compound 78], the EC50 was 1870 nM. `COc1cccc(-c2ccc(C(=O)N(Cc3ccccc3OCCCCCC(=O)O)C3CC3)cc2)c1` [compound 79] showed an EC50 of 301 nM. With `COc1ccc(-c2ccc(C(=O)N(Cc3ccccc3OCCCCCC(=O)O)C3CC3)cc2)cc1` [compound 80] the EC50 was 439 nM. Work on `O=C(O)CCCCCOc1ccccc1CN(C(=O)c1ccc(-c2ccccc2F)cc1)C1CC1` [compound 81] yielded an EC50 of 597 nM. Molecule `O=C(O)CCCCCOc1ccccc1CN(C(=O)c1ccc(-c2cccc(F)c2)cc1)C1CC1` [compound 82] has an EC50 of 150 nM. In the case of `O=C(O)CCCCCOc1ccccc1CN(C(=O)c1ccc(-c2ccc(F)cc2)cc1)C1CC1` [compound 83], the EC50 was 364 nM. `CCc1ccccc1-c1ccc(C(=O)N(Cc2ccccc2OCCCCCC(=O)O)C2CC2)cc1` [compound 84] showed an EC50 of 2500 nM. With `Cc1cccc(-c2ccc(C(=O)N(Cc3ccccc3OCCCCCC(=O)O)C3CC3)cc2)c1C` [compound 86] the EC50 was 1300 nM. Molecule `Cc1ccc(C)c(-c2ccc(C(=O)N(Cc3ccccc3OCCCCCC(=O)O)C3CC3)cc2)c1` [compound 87] has an EC50 of 1150 nM. `Cc1cc(C)cc(-c2ccc(C(=O)N(Cc3ccccc3OCCCCCC(=O)O)C3CC3)cc2)c1` [compound 89] was tested, and the EC50 was 1760 nM. With `O=C(O)CCCCCOc1ccccc1CN(C(=O)c1ccc(-c2ccccc2C(F)(F)F)cc1)C1CC1` [compound 90] the EC50 was 1300 nM. Work on `O=C(O)CCCCCOc1ccccc1CN(C(=O)c1ccc(-c2cccc(C(F)(F)F)c2)cc1)C1CC1` [compound 91] yielded an EC50 of 1150 nM. Work on `O=C(O)CCCCCOc1ccccc1CN(C(=O)c1ccc(-c2ccc(C(F)(F)F)cc2)cc1)C1CC1` [compound 92] yielded an EC50 of 1760 nM. `CCCc1ccc(-c2ccc(C(=O)N(Cc3ccccc3OCCCCCC(=O)O)C3CC3)cc2)cc1` [compound 93] gave an EC50 of 1340 nM.

Same assay, conditions: Table 1; CV-1 cells, GAL4-PPARδ LBD luciferase reporter, compound 24 h; read-out: EC50
For `O=C(O)CCCCCOc1ccccc1CN(C(=O)c1ccc(-c2cccnc2)cc1)C1CC1` [compound 9], the pEC50 was 5.71. Work on `O=C(O)CCCCCOc1ccccc1CN(C(=O)c1ccc(-c2cn[nH]c2)cc1)C1CC1` [compound 11] yielded a pEC50 of 5.67. Work on `O=C(O)CCCCCOc1ccccc1CN(C(=O)c1ccc(-c2ccoc2)cc1)C1CC1` [compound 13] yielded a pEC50 of 6.67. Molecule `O=C(O)CCCCCOc1ccccc1CN(C(=O)c1ccc(-c2ccsc2)cc1)C1CC1` [compound 15] has a pEC50 of 7.23. Molecule `CC(C)N(Cc1ccccc1OCCCCCC(=O)O)C(=O)c1ccc(-c2ccncc2)cc1` [compound 59] has a pEC50 of 5.54. `CC(C)N(Cc1ccccc1OCCCCCC(=O)O)C(=O)c1ccc(-c2cn[nH]c2)cc1` [compound 60] was tested, and the pEC50 was 6.15. In the case of `O=C(O)CCCCCOc1ccccc1CN(C(=O)c1ccc(-c2cccnc2)cc1)C1CCCC1` [compound 66], the pEC50 was 6.10. In the case of `O=C(O)CCCCCOc1ccccc1CN(C(=O)c1ccc(-c2ccncc2)cc1)C1CCCC1` [compound 67], the pEC50 was 5.83. In the case of `O=C(O)CCCCCOc1ccccc1CN(C(=O)c1ccc(-c2cn[nH]c2)cc1)C1CCCC1` [compound 68], the pEC50 was 6.22. For `O=C(O)CCCCCOc1ccccc1CN(C(=O)c1ccc(-c2ccco2)cc1)C1CCCC1` [compound 69], the pEC50 was 7.29. `O=C(O)CCCCCOc1ccccc1CN(C(=O)c1ccc(-c2ccoc2)cc1)C1CCCC1` [compound 70] gave a pEC50 of 6.90. For `O=C(O)CCCCCOc1ccccc1CN(C(=O)c1ccc(-c2cccs2)cc1)C1CCCC1` [compound 71], the pEC50 was 6.12. Work on `O=C(O)CCCCCOc1ccccc1CN(C(=O)c1ccc(-c2ccsc2)cc1)C1CCCC1` [compound 72] yielded a pEC50 of 7.53.
